Laboratory results published in article PMC8815882, “Screening the pandemic response box identified benzimidazole carbamates, Olorofim and ravuconazole as promising drug candidates for the treatment of eumycetoma” (PLoS Neglected Tropical Diseases, 2022).
Read-outs that look alike come from different tables or passages of the source.

Tested on: M. mycetomatis genome strain MM55
Assay: CLSI M38-A2 based in vitro susceptibility screening (XTT or resazurin), growth at fixed concentration
Format: cell-based, Madurella mycetomatis
Conditions: Madurella mycetomatis; for Percent fungal survival at 100 µM: read-out: Percentage survival at 100um, 100 uM A (second replicate column)
[1] = mean of replicates, MM55, read-out: Percentage survival at 25um, 25 uM mean
[2] = replicate A, MM55, read-out: Percentage survival at 25um, 25 um A
[3] = replicate B, MM55, read-out: Percentage survival at 25um, 25 uM B
[4] = replicate C, MM55, read-out: Percentage survival at 25um, 25 uM C
[5] = mean of replicates, MM55, read-out: Percentage survival at 100um, 100 uM mean
[6] = replicate 1, MM55, read-out: Percentage survival at 100um, 100 uM A
[7] = replicate 2, MM55, read-out: Percentage survival at 100um, 100 uM A
[8] = replicate 3, MM55, read-out: Percentage survival at 100um, 100 uM A
[9] = mean, read-out: Percentage survival at 25um, 25 uM mean
[10] = replicate A, read-out: Percentage survival at 25um, 25 um A
[11] = replicate B, read-out: Percentage survival at 25um, 25 uM B
[12] = replicate C, read-out: Percentage survival at 25um, 25 uM C
[13] = mean, read-out: Percentage survival at 100um, 100 uM mean
[14] = replicate (first column), read-out: Percentage survival at 100um, 100 uM A
[15] = replicate (second column), read-out: Percentage survival at 100um, 100 uM A
[16] = replicate (third column), read-out: Percentage survival at 100um, 100 uM A
[17] = replicate 1, read-out: Percentage survival at 100um, 100 uM A (first replicate column)
[18] = replicate 3, read-out: Percentage survival at 100um, 100 uM A (third replicate column)

| SMILES | activity at 25 µM [1] [%] | activity at 25 µM [2] [%] | activity at 25 µM [3] [%] | activity at 25 µM [4] [%] | activity at 100 µM [5] [%] | activity at 100 µM [6] [%] | activity at 100 µM [7] [%] | activity at 100 µM [8] [%] | activity at 25 µM [9] [%] | activity at 25 µM [10] [%] | activity at 25 µM [11] [%] | activity at 25 µM [12] [%] | activity at 100 µM [13] [%] | activity at 100 µM [14] [%] | activity at 100 µM [15] [%] | activity at 100 µM [16] [%] | also measured |
| --- | --- | --- | --- | --- | --- | --- | --- | --- | --- | --- | --- | --- | --- | --- | --- | --- | --- |
| COc1ccc(C(C)(C)C)cc1NC(=O)C(=O)c1ccc(OCCN2CCOCC2)c2ccccc12 [MMV1782209] | 96.3 | 102 | 99.5 | 87.2 | 91.3 | 102 | 86 | 85.7 | – | – | – | – | – | – | – | – | – |
| Nc1nc2c(ncn2/C=C2/CC2(CO)CO)c(=O)[nH]1 [MMV1782210] | 94.9 | 102 | 100 | 83.3 | 81.8 | 89.9 | 79.8 | 75.6 | – | – | – | – | – | – | – | – | – |
| C[C@@H](NC(=O)c1cccc(-c2c[nH]c(-c3cc4ccccc4cn3)n2)c1)c1ccc(F)cc1 [MMV1782211] | 77 | 80.9 | 86 | 64.2 | 70 | 78.5 | 73.3 | 58.3 | – | – | – | – | – | – | – | – | – |
| CC(C)(C)c1ccc(C(=O)NC(=O)N2CCCc3ccccc32)cc1 [MMV1782212] | – | – | – | – | – | – | – | – | 78.4 | 90.3 | 74.4 | 70.6 | 81.3 | 68.7 | 79.3 | 95.8 | – |
| O=C(CSc1nnc(Br)n1-c1ccc(C2CC2)c2ccccc12)Nc1ccc(C(=O)O)cc1Cl [MMV1782213] | 81 | 93.7 | 82 | 67.3 | 74.5 | 63.5 | 115 | 45.2 | – | – | – | – | – | – | – | – | – |
| C=CCN(C(=O)OCc1ccc([N+](=O)[O-])cc1)C1CCN(CC[C@](C)(CN(C)S(=O)(=O)c2ccccc2)c2ccccc2)CC1 [MMV1782214] | 69.4 | 79.7 | 66.7 | 61.9 | 62.1 | 55.9 | 76.9 | 53.4 | – | – | – | – | – | – | – | – | – |
| O=P(O)(O)C(CCCc1cccc(Oc2ccccc2)c1)S(=O)(=O)O (centres unmarked) [MMV1782215] | – | – | – | – | – | – | – | – | – | 82.3 | 68.2 | 56.8 | – | – | – | – | activity at 25 µM (mean of three replicates, read-out: Percentage survival at 25um, 25 uM mean): 69.1%; activity at 100 µM (mean of three replicates, read-out: Percentage survival at 100um, 100 uM mean): 68.9%; activity at 100 µM [17]: 79.5%; Percent fungal survival at 100 µM (replicate 2): 65.1%; activity at 100 µM [18]: 62% |
| CCCNc1ccc(S(=O)(=O)Nc2cc(C)on2)cc1 [MMV1782216] | – | – | – | – | – | – | – | – | 75.9 | 81.9 | 68.5 | 77.2 | 87.1 | 83.4 | 74.1 | 104 | – |
| Cc1cc(NS(=O)(=O)c2ccc(-c3ccc(F)cc3F)cc2)no1 [MMV1782217] | – | – | – | – | – | – | – | – | 78.8 | 76.3 | 79.1 | 81.1 | 93.7 | 83.4 | 76.4 | 121 | – |
| O=C(NC(=O)N1CCCc2ccccc21)c1ccc(Cl)cc1Cl [MMV1782218] | – | – | – | – | – | – | – | – | 77.7 | 84.5 | 82 | 66.6 | 59.4 | 65.3 | 55.7 | 57.2 | – |
| CC(C)CCN1C(=O)C(C2=NS(=O)(=O)c3cc(NS(C)(=O)=O)ccc3N2)=C(O)[C@@H]2[C@H]3CC[C@H](C3)[C@@H]21 [MMV1782220] | 83.6 | 78.4 | 83.3 | 89.2 | 113 | 140 | 71 | 127 | – | – | – | – | – | – | – | – | – |
| C[C@H](c1cccc2ccccc12)N(C)Cc1ccccc1 [MMV1782221] | – | – | – | – | – | – | – | – | – | – | – | – | – | – | – | – | activity at 25 µM (mean of three, M. mycetomatis MM55, read-out: Percentage survival at 25um, 25 uM mean): 60.5%; activity at 25 µM (replicate A, M. mycetomatis MM55, read-out: Percentage survival at 25um, 25 um A): 78.4%; activity at 25 µM (replicate B, M. mycetomatis MM55, read-out: Percentage survival at 25um, 25 uM B): 99.2%; activity at 25 µM (replicate C, M. mycetomatis MM55, read-out: Percentage survival at 25um, 25 uM C): 3.87%; activity at 100 µM (mean of three, M. mycetomatis MM55, read-out: Percentage survival at 100um, 100 uM mean): 78.8%; activity at 100 µM (replicate 1, M. mycetomatis MM55, read-out: Percentage survival at 100um, 100 uM A (first replicate column)): 56%; Percent fungal survival at 100 µM (replicate 2, M. mycetomatis MM55): 63.1%; activity at 100 µM (replicate 3, M. mycetomatis MM55, read-out: Percentage survival at 100um, 100 uM A (third replicate column)): 117% |
| CN1c2ccc(Cl)cc2N(c2ccccc2)C(=O)c2cn(Cc3ccc(CN4CCOCC4)cc3)nc21 [MMV1782222] | – | – | – | – | – | – | – | – | – | 58.9 | 64.9 | 59.6 | – | – | – | – | activity at 25 µM (mean of replicates, read-out: Percentage survival at 25um, 25 uM mean): 61.1%; activity at 100 µM (mean of replicates, read-out: Percentage survival at 100um, 100 uM mean): 60.2%; activity at 100 µM [17]: 52.1%; Percent fungal survival at 100 µM (replicate 2): 70.5%; activity at 100 µM [18]: 58.2% |
| CN(C)c1[nH]c(=O)ncc1F [MMV1782223] | – | – | – | – | – | – | – | – | 93 | 97 | 101 | 80.9 | 82.8 | 84 | 75.3 | 88.9 | – |
| O=C(Nc1[nH]c(=O)ncc1F)c1ccccc1 [MMV1782225] | – | – | – | – | – | – | – | – | 79 | 82.4 | 77.6 | 77.1 | 83.6 | 74.1 | 79.1 | 97.6 | – |
| OB1OCc2c1ccc(Cl)c2F [MMV1782226] | – | – | – | – | – | – | – | – | 54.9 | 54.6 | 46.9 | 63.1 | 64.2 | 55.3 | 77.4 | 59.8 | – |
| O=C(NNC(=S)Nc1ccc(Cl)cc1)c1ccncc1 [MMV1782227] | – | – | – | – | – | – | – | – | 85.9 | 105 | 86.1 | 67 | 121 | 128 | 90.7 | 144 | – |
| Cc1cc(CCOc2c(C)cc(-c3nnn(C)n3)cc2C)on1 [MMV1782349] | 75.6 | 84.4 | 90 | 52.4 | 52.1 | 44.9 | 65 | 46.2 | – | – | – | – | – | – | – | – | – |
| CC(C)Oc1ccc(-n2cnc3cc(/C=C\c4ccc(C(C)(C)O)cc4)ccc32)cc1 [MMV1782350] | 60.8 | 60 | 63 | 59.5 | 55.5 | 57.8 | 56.4 | 52.3 | – | – | – | – | – | – | – | – | – |
| O=C(NC(=O)N1CCCc2ccccc21)c1cccc(Cl)c1 [MMV1782351] | – | – | – | – | – | – | – | – | 92 | 96.8 | 101 | 78.3 | 75.7 | 73.9 | 74.5 | 78.6 | – |
| O=C(O)COc1cccc2c1CC[C@](O)(COC(=O)N(c1ccccc1)c1ccccc1)C2 [MMV1782352] | 89.4 | 92.5 | 96.3 | 79.5 | 88.8 | 91.1 | 97.6 | 77.7 | – | – | – | – | – | – | – | – | – |
| CC(C)(C)NC(=O)[C@@H]1CN(Cc2cnc3occc3c2)CCN1C[C@@H](O)C[C@@H](Cc1ccccc1)C(=O)N[C@H]1c2ccccc2C[C@H]1O [MMV1782353] | 97.1 | 103 | 101 | 87.6 | 86.3 | 97 | 84.7 | 77.2 | – | – | – | – | – | – | – | – | – |
